Measurements: patent publication US20230096028A1, “BICYCLIC HETEROCYCLYL COMPOUNDS AND USES THEREOF” (Revolution Medicines, Inc., priority 2019, published 2023)

Tests used:
[1] = target: T1, SOS1 catalytic domain (residues 564-1049) (Homo sapiens, UniProt Q07889); assay: Potency Assay: binding affinity to SOS1 using Surface Plasmon Resonance (SPR); design: SOS1 catalytic domain (residues 564-1049) immobilized on a sensor chip; conditions: immobilized SOS1 catalytic domain (residues 564-1049), read-out: SOS1 SPR Equilibrium Kd
T1 sequence (Q07889 564-1049): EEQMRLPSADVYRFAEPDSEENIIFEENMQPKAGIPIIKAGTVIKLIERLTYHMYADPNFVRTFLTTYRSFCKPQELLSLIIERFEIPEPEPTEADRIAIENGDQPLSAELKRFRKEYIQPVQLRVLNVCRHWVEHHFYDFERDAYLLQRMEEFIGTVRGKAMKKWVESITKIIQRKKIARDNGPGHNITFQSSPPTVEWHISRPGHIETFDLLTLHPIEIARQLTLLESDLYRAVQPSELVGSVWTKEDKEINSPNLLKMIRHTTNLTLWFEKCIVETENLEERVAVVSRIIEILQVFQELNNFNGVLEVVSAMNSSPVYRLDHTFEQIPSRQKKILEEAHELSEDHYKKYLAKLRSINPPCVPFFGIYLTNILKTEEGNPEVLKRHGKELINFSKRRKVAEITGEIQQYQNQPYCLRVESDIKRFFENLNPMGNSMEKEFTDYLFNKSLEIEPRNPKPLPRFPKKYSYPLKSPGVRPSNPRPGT
Procedure: Data was reported as equilibrium dissociation constant (Kd) values.
Using a GE Biacore 8K SPR instrument, avi-tagged SOS1 catalytic domain protein was immobilized to a level of approximately 6000 response units (RU) on a streptavidin-coated SPR sensor chip in assay buffer containing 0.01 M HEPES, 0.15 M NaCl and 0.05% v/v Surfactant P20. […] For each test compound, a separate 0 μM sample was generated for use during subsequent double reference subtraction. Serially for each test compound, individual dilution samples were flowed over the immobilized SOS1 protein at a flow rate of 50 μL/minute to monitor the association with SOS1. Dissociation of bound test compound from the SOS1 protein was immediately monitored by flowing assay buffer over the sensor surface and monitoring the decrease in binding signal back to the baseline level seen in the absence of compound. This was repeated for all compound dilutions in each series. The binding level response for each test compound concentration was noted immediately prior to the end of the association phase, and a secondary plot generated showing binding response level versus test compound concentration generated for each compound dilution series.

[2] = system: PC-9 cells (EGFR Ex19Del); assay: Potency Assay: pERK (SOS1 pERK IC50 Assay, AlphaLISA SureFire Ultra p-ERK1/2); type: cell-based; conditions: Homo sapiens; PC-9 cells (EGFR Ex19Del), 1 hour incubation, AlphaLISA p-ERK1/2; read-out: SOS1 pERK IC50
How it was run: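 Cellular pERK1/2 by AlphaLISA SureFire Ultra after 1 h compound exposure (37° C., highest concentration 10 μM, 3-fold steps, duplicates) of EGFR Ex19Del PC-9 cells seeded the day before. A 4-parameter fit of signal versus log concentration gives IC50.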

[3] = target: T1, SOS1 catalytic domain (residues 564-1049); assay: Mode of Action Assay: inhibition of SOS1 nucleotide exchange activity (SOS1 TR-FRET IC50 Assay)

| SMILES | Kd [1] [nM] | IC50 [2] [nM] | IC50 [3] [nM] |
| --- | --- | --- | --- |
| Cc1nc2c(c(N[C@H](C)c3cc(N)cc(C(F)(F)F)c3)n1)CN(C(=O)N1CC(O)C1)C2 [Example 352] | < 400 | > 1000 | – |
| CCc1cc(N)cc(C(C)Nc2nc(Cl)nc3c2CN(C(=O)N2CCOCC2)C3)c1 (stereo not shown) [Example 41, [4-[1-(3-amino-5-ethyl-phenyl)ethylamino]-2-chloro-5,7-dihydropyrrolo[3,4-d]pyrimidin-6-yl]-morpholino-methanone] | < 400 | < 1000 | – |
| Cc1nc2c(c(N[C@H](C)c3cc(N)cc(C(F)(F)F)c3)n1)CN(C(=O)N1CCN(C)CC1)C2 [Example 351] | < 400 | < 1000 | – |
| C[C@@H](Nc1nc(Cl)nc2c1CN(S(=O)(=O)C1CCNCC1)C2)c1cc(N)cc(C(F)(F)F)c1 [Example 187] | < 400 | > 1000 | – |
| C[C@@H](Nc1nc(Cl)nc2c1CN(c1ncccc1N1CCOCC1)CC2)c1cc(N)cc(C(F)(F)F)c1 [Example 186, (R)—N-(1-(3-amino-5-(trifluoromethyl)phenyl)ethyl)-2-chloro-6-(3-morpholinopyridin-2-yl)-5,6,7,8-tetrahydropyrido[4,3-d]pyrimidin-4-amine] | > 400 | > 1000 | – |
| C[C@@H](Nc1nc(Cl)nc2c1CN(C1CCOCC1)CC2)c1cc(N)cc(C(F)(F)F)c1 [Example 22, N-[(1R)-1-[3-amino-5-(trifluoromethyl)phenyl]ethyl]-2-chloro-6-tetrahydropyran-4-yl-7,8-dihydro-5H-pyrido[4,3-d]pyrimidin-4-amine] | < 400 | < 1000 | – |
| C[C@@H](Nc1nnc(Cl)c2c1CN(C(=O)N1CCOCC1)C2)c1cc(N)cc(C(F)(F)F)c1 [Example 35, [1-[[(1R)-1-[3-amino-5-(trifluoromethyl)phenyl]ethyl]amino]-4-chloro-5,7-dihydropyrrolo[3,4-d]pyridazin-6-yl]-morpholino-methanone] | > 400 | > 1000 | – |
| CNCc1ccccc1-c1ccc(C(C)Nc2nc(Cl)nc3c2CN(C(=O)N2CCOCC2)C3)s1 (stereo not shown) [Example 39, [2-chloro-4-[1-[5-[2-(methylaminomethyl)phenyl]-2-thienyl]ethylamino]-5,7-dihydropyrrolo[3,4-d]pyrimidin-6-yl]-morpholino-methanone] | < 400 | < 1000 | – |
| COc1cncc(C(=O)N2CCc3nc(Cl)nc(N[C@H](C)c4cc(N)cc(C(F)(F)F)c4)c3C2)n1 [Example 237] | > 400 | > 1000 | – |
| COc1cccnc1C(=O)N1Cc2nc(Cl)nc(N[C@H](C)c3cc(N)cc(C(F)(F)F)c3)c2C1 [Example 74] | < 400 | – | < 1000 |
| C[C@@H](Nc1nc(Cl)nc2c1CN(C(=O)N1CCOc3ccncc31)C2)c1cc(N)cc(C(F)(F)F)c1 [Example 141] | < 400 | – | < 1000 |
| C[C@@H](Nc1nc(Cl)nc2c1CN(C(=O)N1CCNc3ncccc31)C2)c1cccc(C(F)F)c1F [Example 425] | < 400 | – | < 1000 |
| C[C@@H](Nc1nc(Cl)nc2c1CN(C(=O)N1CCC(C)(O)CC1)C2)c1cc(N)cc(C(F)(F)F)c1 [Example 162] | < 400 | – | < 1000 |
| COc1cncc(C(=O)N2Cc3nc(Cl)nc(N[C@H](C)c4cc(N)cc(C(F)(F)F)c4)c3C2)n1 [Example 69] | > 400 | – | > 1000 |
| Cc1cn2nnc(C(=O)N3Cc4nc(Cl)nc(N[C@H](C)c5cc(N)cc(C(F)(F)F)c5)c4C3)c2c(=O)[nH]1 [Example 103] | < 400 | – | > 1000 |
| COc1cccc(C(=O)N2Cc3nc(Cl)nc(N[C@H](C)c4cc(N)cc(C(F)(F)F)c4)c3C2)n1 [Example 67] | > 400 | – | > 1000 |
| C[C@@H](Nc1nc(Cl)nc2c1CN(C(=O)N1CCc3cccnc31)C2)c1cccc(C(F)(F)F)c1 [Example 369] | < 400 | – | < 1000 |
